Tests used:
Beta-lactamase = Beta-lactamase (Pseudomonas aeruginosa, UniProt Q79MP6)
Beta-lactamase II [1] = target: T1, Beta-lactamase II (Bacillus anthracis, UniProt Q93T40)
T1 sequence (Q93T40 whole entry): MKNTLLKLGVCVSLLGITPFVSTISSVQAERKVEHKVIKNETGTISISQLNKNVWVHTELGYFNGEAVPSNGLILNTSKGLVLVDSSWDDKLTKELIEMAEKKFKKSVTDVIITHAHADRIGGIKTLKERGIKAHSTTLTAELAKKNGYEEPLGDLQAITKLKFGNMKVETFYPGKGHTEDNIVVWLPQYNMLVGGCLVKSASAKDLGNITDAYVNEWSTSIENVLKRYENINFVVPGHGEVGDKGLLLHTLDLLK

Beta-lactamase II [2] = target: T1, Beta-lactamase II; remark: listed apart in the source

Beta-lactamase, sequence (Q79MP6 whole entry): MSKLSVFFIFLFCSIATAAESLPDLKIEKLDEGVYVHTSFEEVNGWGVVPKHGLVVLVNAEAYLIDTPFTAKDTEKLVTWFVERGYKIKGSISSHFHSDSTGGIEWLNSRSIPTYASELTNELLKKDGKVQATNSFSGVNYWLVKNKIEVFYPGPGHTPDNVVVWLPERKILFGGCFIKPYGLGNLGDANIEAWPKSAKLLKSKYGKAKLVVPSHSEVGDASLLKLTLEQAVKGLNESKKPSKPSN

| Structure (SMILES) | IC50 (Beta-lactamase) | IC50 (Beta-lactamase II [1]) | Ki (Beta-lactamase II [1]) | IC50 (Beta-lactamase II [2]) |
| --- | --- | --- | --- | --- |
| O=C(O)c1csc(-c2ccccc2)n1 | > 200 µM | > 200 µM |  |  |
| O=C(O)[C@@H]1CSC(c2ccccc2)N1 (stereo partly drawn) | > 200 µM | > 200 µM |  |  |
| O=C(O)c1csc(Cc2ccccc2)n1 |  | > 200 µM |  |  |
| O=C(Cc1ccccc1)NCC1=N[C@H](C(=O)O)CS1 | > 200 µM | > 200 µM |  |  |
| O=C(O)[C@@H]1CSC(Cc2ccccc2)=N1 | > 200 µM | > 200 µM |  |  |
| O=C(O)[C@@H]1CSC(Cc2ccccc2)N1 (stereo partly drawn) | > 200 µM | > 200 µM |  |  |
| O=C(O)[C@@H]1CSC(c2ccc(Cl)cc2)=N1 | > 200 µM | > 200 µM |  |  |
| O=C(O)[C@@H]1CSC(c2ccc(Br)cc2)=N1 | > 200 µM | > 200 µM |  |  |
| Nc1cccc(C2=N[C@H](C(=O)O)CS2)c1 | 77 µM | 4.9 µM | 5.1 µM |  |
| CC(=O)Nc1cccc(C2=N[C@H](C(=O)O)CS2)c1 | > 200 µM | > 200 µM |  |  |
| CC(C)(C)OC(=O)Nc1cccc(C2=N[C@H](C(=O)O)CS2)c1 | > 200 µM | 74.1 µM |  |  |
| COc1cccc(CC(=O)NCC2=N[C@H](C(=O)O)CS2)c1 | > 200 µM | > 200 µM |  |  |
| CC(C)(C)OC(=O)NCC1=N[C@H](C(=O)O)CS1 | > 200 µM | > 200 µM |  |  |
| O=C(NCC1=N[C@H](C(=O)O)CS1)OCc1ccccc1 | > 200 µM | > 200 µM |  |  |
| O=C(O)[C@@H]1CSC(c2ccccc2O)=N1 | > 200 µM | > 200 µM |  |  |
| C[C@H](CS)C(=O)N1CCC[C@H]1C(=O)O [CAPTOPRIL] |  | 25.8 µM | 17.9 µM |  |
| O=C(O)CN(CCN(CC(=O)O)CC(=O)O)CC(=O)O [EDETIC ACID] |  |  |  | 1060 µM |
